Test results from patent US11104700B2, “Oligonucleotides” (OXFORD UNIVERSITY INNOVATION LIMITED, priority 2017, dated 2021).
Read-outs that look alike come from different tables or passages of the source. In the oligonucleotide strings, read from the 5' end, every base follows the letter of its sugar. An asterisk marks phosphorothioate; unmarked linkages are phosphodiester. Other units and linkages are bracketed, terminal groups are in braces. A string of capitals states the bases alone. [tz] = triazole internucleoside linkage replacing phosphodiester; l = locked nucleic acid (LNA); [5mC] = 5-methylcytosine; d = 2'-deoxy (DNA)

What was measured:
[1] = tested on: DNA target: 5′-dGCT GCA AGC GTC G (SEQ ID NO: 33); assay: UV thermal melting, single triazole linkage (MeC-T step), DNA target; format: binding
[2] = tested on: RNA target: 5′-rGCU GCA AGC GUC G (SEQ ID NO: 34); assay: UV thermal melting, single triazole linkage (MeC-T step), RNA target; format: binding
[3] = tested on: RNA Target 3′-rGCUGCGMACGUCG (M = G, C, U); assay: Mismatch discrimination against RNA targets containing a mismatch nucleotide (UV melting); format: binding
[4] = tested on: DNA target 5′-dGCT GCA GGC GTC G (SEQ ID NO: 23); format: binding; conditions: for Tm, DNA target: pH 7
[5] = tested on: RNA target 5′-rGCU GCA GGC GUC G (SEQ ID NO: 24); format: binding; conditions: for Tm, RNA target: pH 7
[6] = tested on: DNA target; 5′-dGCT AGA GAA GTC G (SEQ ID NO: 37); assay: UV thermal melting, two triazole linkages (MeC-T steps), DNA target; format: binding; conditions: Table 6; for Tm, DNA target: 10 mM phosphate, 200 mM NaCl, pH 7.0, 3.0 μM each strand; for ΔTm/mod, DNA target: relative to unmodified ON7
[7] = tested on: RNA target; 5′-rGCU AGA GAA GUC G (SEQ ID NO: 38); assay: UV thermal melting, two triazole linkages (MeC-T steps), RNA target; format: binding; conditions: for Tm, RNA target / ΔTm/mod, RNA target: Table 6; for Tm, RNA target: 10 mM phosphate, 200 mM NaCl, pH 7.0, 3.0 μM each strand; for ΔTm/mod, RNA target: relative to unmodified ON7
[8] = tested on: Phosphodiesterase 1 from Crotalus adamanteus venom
[9] = tested on: DNA target: 5′-dGCT GGA GAG GTC G (SEQ ID NO: 39); format: binding; conditions: for Tm, DNA target: pH 7
[10] = Table 5, 10 mM phosphate, 200 mM NaCl, pH 7.0, 3.0 μM each strand
[11] = Table 3, fully matched duplex (M = A)
[12] = change in Tm relative to the fully matched duplex (M = A)

For 5′-dCGACG^MeCtT^LTGCAGC [ON2], the “increase in thermal stability compared to the duplex containing only the triazole linkage” value [1] was 2.9, the “ΔTm, DNA target (change in Tm relative to the unmodified duplex)” value [1] was −6.0 and the Tm, DNA target ([1]; pH 7) was 58.2 °C. The Tm, RNA target M = A [2] was 62 °C, the “increase in Tm relative to the duplex with only the triazole linkage” value [2] was 5.4 and the “ΔTm, RNA target (change in Tm relative to the unmodified duplex)” value [2] was −0.8. The Tm, RNA target ([2]; pH 7) was 62 °C, the “ΔTm, mismatch M = C” value [3] was -15.6 and the “ΔTm, mismatch M = G” value [3] was -3.3. For the same substance, the “ΔTm, mismatch M = U” value [3] was -13.4.
5′-d CGACG^MeCp^MeCTGCAGC [ON33] was tested, and the Tm, DNA target [4] was 68.7 °C and the Tm, RNA target [5] was 69.1 °C.
“CGA^MeCT^LTCT^MeCT^LAGC (DNA dCdGdAd[5mC]lTdTdCdTd[5mC]lTdAdGdC) [ON10]” was tested, and the “Tm, DNA target” value [6] was 62.2 °C, the “ΔTm/mod, DNA target” value [6] was “+2.5 °C/modification” and the “Tm, RNA target” value [7] was 70.0 °C. For the same substance, the “ΔTm/mod, RNA target” value [7] was “+5.6 °C/modification”.
For 5′-dCGACG^MeCt^MeC^LTGCAGC [ON11], the “ΔTm, DNA target (relative to the unmodified duplex ON33)” value [4] was -5.1, the Tm, DNA target [4] was 63.5 °C and the “ΔTm, RNA target (relative to the unmodified duplex ON33)” value [5] was -0.5. The Tm, RNA target [5] was 68.6 °C.
“5′-dCGA^MeCtT^LTCT^MeCtT^LAGC (DNA dCdGdAd[5mC][tz]lTdTdCdTd[5mC][tz]lTdAdGdC; further chemistry not given here) [ON8]” was tested, and the “Tm, DNA target” value [6] was 48.0 °C, the “ΔTm/mod, DNA target” value [6] was -4.5 °C/modification and the “increase in Tm per modification relative to two triazole linkages without 3′-LNA” value ([7]; ON8 compared with ON9, RNA target) was 5.0 °C/modification. The “drop in Tm per modification compared to unmodified ON7” value ([7]; RNA target) was 0.8 °C/modification, the “Tm, RNA target” value [7] was 57.1 °C and the “ΔTm/mod, RNA target” value [7] was -0.8 °C/modification.
“CGACG^MeCTTGCAGC (DNA CGACGCTTGCAGC; DNA, [5mC] at 6, backbone not given here) [ON1]” was tested, and the “Tm, DNA target” value [1, 10] was 64.2 °C, the “Tm, RNA target M = A” value [2, 11] was 62.8 °C and the “Tm, RNA target” value [2, 10] was 62.8 °C. For the same substance, the “ΔTm, mismatch M = C” value [3, 12] was -16.3 °C, the “ΔTm, mismatch M = G” value [3, 12] was -3.9 °C and the “ΔTm, mismatch M = U” value [3, 12] was -13.7 °C. For the same substance, the “time to full digestion by 3′-exonuclease (gel)” value [8] was ≤ 5 min.
5′-dCGACG^MeCt^MeCTGCAGC [ON12] was tested, and the “ΔTm, DNA target (relative to the unmodified duplex ON33)” value [4] was -6.4, the Tm, DNA target [4] was 62 °C and the “ΔTm, RNA target (relative to the unmodified duplex ON33)” value [5] was -5.8. For the same substance, the Tm, RNA target [5] was 63.4 °C.
In the case of 5′-d CGACG^MeCp^MeC^LTGCAGC [ON34], the “ΔTm, DNA target (relative to the unmodified duplex ON33)” value [4] is reported as “+3.3”, the Tm, DNA target [4] is reported as 72 °C and the “ΔTm, RNA target (relative to the unmodified duplex ON33)” value [5] is reported as “+5.6”. The Tm, RNA target [5] was 74.7 °C.
With 5′-dCGA^MeCt^MeCTCT^MeCt^MeCAGC [ON14] the “ΔTm/mod, DNA target” value [9] was -7.3 and the Tm, DNA target [9] was 51.9 °C.
With “5′-dCGA^MeCt^MeC^LTCT^MeCt^MeC^LAGC [ON13]” the “ΔTm/mod, DNA target” value [9] was -5.1 and the Tm, DNA target [9] was 56.4 °C.
In the case of 5′-dCGA^MeCp^MeCTCT^MeCp^MeCAGC [ON35], the Tm, DNA target [9] is reported as 66.6 °C.
With “CGA^MeCTTCT^MeCTAGC (DNA dCdGdAd[5mC]dTdTdCdTd[5mC]dTdAdGdC) [ON7]” the “Tm, DNA target” value [6] was 57.1 °C and the “Tm, RNA target” value [7] was 58.8 °C.
With “5′-dCGACG^MeCtTTGCAGC (DNA dCdGdAdCdGd[5mC][tz]dTdTdGdCdAdGdC; further chemistry not given here) [ON3]” the “Tm, DNA target” value [1, 10] was 55.3 °C, the “ΔTm, DNA target (change in Tm relative to the unmodified duplex)” value ([1]; Table 5, relative to ON1) was -8.9 °C and the “Tm, RNA target M = A” value [2, 11] was 56.6 °C. The “Tm, RNA target” value [2, 10] was 56.6 °C, the “ΔTm, RNA target (change in Tm relative to the unmodified duplex)” value ([2]; Table 5, relative to ON1) was -6.2 °C and the “ΔTm, mismatch M = C” value [3, 12] was -16.1 °C. For the same substance, the “ΔTm, mismatch M = G” value [3, 12] was -2.2 °C and the “ΔTm, mismatch M = U” value [3, 12] was -12.9 °C.
CGACG^MeCT^LTGCAGC [ON4] was tested, and the “ΔTm, DNA target (change in Tm relative to the unmodified duplex)” value [1] was 3.3, the Tm, DNA target ([1]; pH 7) was 67.5 °C and the Tm, RNA target M = A [2] was 68.9 °C. For the same substance, the “ΔTm, RNA target (change in Tm relative to the unmodified duplex)” value [2] was 6.1, the Tm, RNA target ([2]; pH 7) was 68.9 °C and the “ΔTm, mismatch M = C” value [3] was -15.2. For the same substance, the “ΔTm, mismatch M = G” value [3] was -4.8 and the “ΔTm, mismatch M = U” value [3] was -13.7.
With “5′-dCGA^MeCp^MeC^LTCT^MeCp^MeC^LAGC [ON36]” the “ΔTm/mod, DNA target” value [9] was “+2.8” and the Tm, DNA target [9] was 72.2 °C.
In the case of 5′-dCGACG^MeC^LtT^LTGCAGC [ON6], the “ΔTm, DNA target (change in Tm relative to the unmodified duplex)” value [1] is reported as -5.8, the Tm, DNA target ([1]; pH 7) is reported as 58.4 °C and the “additional stabilising effect of LNA on the 5′-side of the triazole” value [2] is reported as “no significant additional stabilising effect”. For the same substance, the “ΔTm, RNA target (change in Tm relative to the unmodified duplex)” value [2] was “+0.1” and the Tm, RNA target ([2]; pH 7) was 62.9 °C.
With “5′-dCGACG^MeC^LtTTGCAGC (DNA dCdGdAdCdGl[5mC][tz]dTdTdGdCdAdGdC; further chemistry not given here) [ON5]” the “Tm, DNA target” value [1, 10] was 52.7 °C, the “ΔTm, DNA target (change in Tm relative to the unmodified duplex)” value ([1]; Table 5, relative to ON1) was -11.5 °C and the “additional stabilising effect of LNA on the 5′-side of the triazole” value ([2]; DNA:RNA hybrids or DNA duplexes) was “no significant additional stabilising effect”. For the same substance, the “Tm, RNA target” value [2, 10] was 55.5 °C and the “ΔTm, RNA target (change in Tm relative to the unmodified duplex)” value ([2]; Table 5, relative to ON1) was -7.2 °C.
For “5′-dCGA^MeCtTTCT^MeCtTAGC (DNA dCdGdAd[5mC][tz]dTdTdCdTd[5mC][tz]dTdAdGdC; further chemistry not given here) [ON9]”, the “Tm, DNA target” value [6] was 42.3 °C, the “ΔTm/mod, DNA target” value [6] was -7.4 °C/modification and the “Tm, RNA target” value [7] was 47.1 °C. For the same substance, the “ΔTm/mod, RNA target” value [7] was -5.8 °C/modification.
